What was measured:
Format in all cases: physicochemical
Hygroscopicity = assay: Hygroscopicity
[1] = Solution Stability in aqueous solutions; settings: room temperature, all aqueous solutions (pH 1.6-10.5)
pH-Solubility = settings: free base
[2] = Octanol/Water Partitioning Coefficient; settings: @ pH 6

| Hygroscopicity, weight gain (Hygroscopicity; @ 60% RH) [%] | Hygroscopicity, weight gain (Hygroscopicity; @ 90% RH, weight gain was lost when returned to 10% RH or 0% RH) | pH-Solubility (pH-Solubility; Final pH 1.60) | pH-Solubility (pH-Solubility; Final pH 7.62) | pH-Solubility (pH-Solubility; Final pH 8.21) | pH-Solubility (pH-Solubility; Final pH 9.00) | pH-Solubility (pH-Solubility; Final pH 10.5) | Octanol/Water Partitioning Coefficient Coct/Caq [2] | Compound | Hygroscopicity (Hygroscopicity) | Solution Stability, time stable [1] |
| --- | --- | --- | --- | --- | --- | --- | --- | --- | --- | --- |
| – | – | – | – | – | – | – | – | CN(C)CC(c1ccc(O)cc1)[C@]1(O)CC[C@@H](O)CC1.O=C(O)CCC(=O)O (stereo partly drawn) [Succinate salt, 1-[2-dimethylamino-1-(4-phenol)ethyl]-cis-1,4-cyclohexandiol succinate] | hygroscopic | – |
| 0.44 | 60% RH, 1.2% weight gain @ 90% RH, | Final pH 1.60 >10.71 mg/ml | Final pH 7.62 >10.00 mg/ml | Final pH 8.21 >10.00 mg/ml | Final pH 9.00 7.65 mg/ml | Final pH 10.5 7.65 mg/ml | Coct/Caq @ pH 6 = 6.857 | COC1CCC(O)(C(CN(C)C)c2ccc(O)cc2)CC1 (stereo not drawn) [4-[2-dimethylamino-1-(cis-1-hydroxy-4-methoxy-cyclohexyl)-ethyl]-phenol] | Non-hygroscopic | The compound was stable for at least 72 hours |
